# Measurements from US5422341A, “Motilin-like polypeptides with gastrointestinal motor stimulating activity” (Ohmeda Pharmaceutical Products Division Inc., priority 1993, dated 1995).
# Structures can show the parent of a compound that is named as a salt. Square brackets hold non-standard residues; d marks the D form. Peptide text beside a SMILES is read from it. * marks the point of attachment. X1 = C[N+](C)(C)[C@@H](Cc1ccccc1)C(=O)*; NMe2Phe = CN(C)[C@@H](Cc1ccccc1)C(=O)*; NMeF = CN[C@@H](Cc1ccccc1)C(=O)O
# Assays:
# [1] = target: segments of rabbit duodenum (Oryctolagus cuniculus, UniProt G1T803); assay: Rabbit duodenal smooth muscle strip tissue bath assay; type: cell-based; settings: negative logarithm of the dose giving 50% of the maximal response to motilin; isotonic contraction of rabbit duodenum segments
# Summary of the method: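 Isotonic contraction of rabbit duodenal segments after 1 h equilibration and 10^-4 M acetylcholine challenge; cumulative compound curve over 10^-11 to 10^-4 M, then 10^-7 M motilin. Runs discarded if final acetylcholine response differed >5%. EC50 at 50% of maximal motilin response, reported as pEC50.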
# motilin receptor = target: T1, motilin receptor (Oryctolagus cuniculus, UniProt G1T803); assay: Determination of motilin receptor binding affinity (displacement of [125I-Tyr7, Nle13]motilin(porcine)); parameters: species or system rabbit; settings: negative logarithm of the concentration displacing 50% of [125I-Tyr7, Nle13]motilin(porcine) from rabbit antral smooth muscle membranes; read-out: pIC50 (converted)
# T1 construct: from tissue; host or cells: rabbit antral smooth muscle membranes
# Description: The motilin receptor binding affinity of the peptides of this invention was determined by using the general procedure of Bormans, Peelers and Vantrappen, Regul. […] Fitting was performed using the iterative least-squares procedure of the SAS-software package (SAS Institute, Inc., Cary, N.C., USA).
# [2] = test system: canine gastrointestinal tract; assay: Contractile activity in the canine gastrointestinal tract; type: in vivo, dog; settings: anesthetized dogs, intra-arterial injection to a duodenal segment; amount giving 50% of the calibration response to field stimulation
# Description: Mongrel dogs of either sex were anesthetized with sodium pentobarbital 65 mg/kg intravenously. A mid-line incision was made in the abdomen. A duodenal segment was located, the terminal arteries to that segment were identified, and the closest possible artery of the appropriate size was rubbed clean of fat and fascia. A needle of suitable diameter was bent at an angle and the tip inserted in the cleaned artery. The needle was held in position in the artery for approximately 30 seconds until vascular spasm has relaxed and then a catheter assembly was inserted into the artery and tied into position with 000 silk sutures. The fine polyethylene catheter (10-15 cm) was cut to a point at one end with a needle inserted at the other end. The hub of the needle was fitted with a 3-way stopcock and the catheter assembly was filled with heparinized Krebs Ringer bicarbonate containing 10 mM glucose. A bolus of Krebs (free of air) was injected into the arterial catheter and the distribution of blanching in the segment noted. If the area was too large, collateral arteries may be tied off as long as circulation to the area was maintained. A Bass type strain gauge was then sutured to the serosa, and oriented so that circular muscle contractions can be recorded on a Beckman R611 dynograph. Silver wire electrodes were inserted subserosally on either side of the strain gauge and were connected through stimulus isolation units to a Grass S88 electrical stimulator. Electrical field stimulation was applied at 40 V 0.5 ms and 5 pps and the amplitude of the pen recorder was set to contain the contractile response.
# All peptides to be injected were dissolved in Krebs and serial dilutions were prepared so that for any concentration the maximum volume to be injected was 1 ml. All solutions except stock Krebs were held on ice for the day of the experiment and discarded at the end of the day. For determination of a dose-response curve, the site was first injected with a bolus of approximately 1 ml of heparinized Krebs to provide a flush control. Peptide agonists (in volumes of 1 ml flushed with 1 ml of Krebs) were injected in logarithmic increments until a response which was maximal in amplitude was obtained. The injection site was then flushed with Krebs containing 0.1% BSA to displace any peptide remaining in the arterial line. For peptides acting at the motilin receptor, care was taken not to inject supramaximal doses as these will induce tachyphylaxis. Therefore, as responses become apparent, 0.3 or 0.5 log unit increments were used. A site was used for a dose-response determination only every 1/2 to 1 hour.
# The amplitude of the calibration response to field stimulation in each site was measured and used as 100% for that site. The amplitude of the response to the agonist at each dose was determined, calculated as a % of the calibration response and plotted against the concentration. The ED50 of the response represents the amount of agonist required to produce a response which was 50% of the calibration response.
# T1 sequence (G1T803 1-400): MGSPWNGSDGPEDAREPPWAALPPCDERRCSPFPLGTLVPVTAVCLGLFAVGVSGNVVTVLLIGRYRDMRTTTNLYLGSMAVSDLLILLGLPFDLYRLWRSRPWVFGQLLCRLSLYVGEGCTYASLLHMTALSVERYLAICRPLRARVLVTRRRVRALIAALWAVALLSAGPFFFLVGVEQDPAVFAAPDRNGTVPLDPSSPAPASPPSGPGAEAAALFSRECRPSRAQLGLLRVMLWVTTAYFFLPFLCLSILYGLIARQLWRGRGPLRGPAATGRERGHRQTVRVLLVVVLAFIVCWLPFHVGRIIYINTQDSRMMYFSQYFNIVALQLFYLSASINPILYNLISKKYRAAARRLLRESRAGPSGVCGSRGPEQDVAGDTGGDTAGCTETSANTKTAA
# Sequence of segments of rabbit duodenum (G1T803 1-400): as above
pEC50 [1],IC50 (motilin receptor) [nM],SMILES,ED50 [2] [nmol]
7.77,0.724,CC[C@H](C)[C@H](NC(=O)[C@H](C)NC(=O)[C@@H](NC(=O)[C@H](Cc1ccccc1)NC)C(C)C)C(=O)N[C@@H](Cc1ccccc1)C(=O)N[C@H](C(=O)N[C@@H](Cc1ccc(O)cc1)C(=O)NCC(=O)N[C@@H](CCC(=O)O)C(=O)N[C@@H](CC(C)C)C(=O)N[C@@H](C)C(=O)N[C@H](CCCNC(=N)N)C(=O)N[C@@H](CC(C)C)C(=O)N[C@@H](CCCCN)C(N)=O)[C@@H](C)O (H-[NMeF]VAIFTYGELA[dR]LK-NH2),0.001
7.80,0.447,"CC[C@H](C)[C@H](NC(=O)[C@H](C)NC(=O)[C@@H](NC(=O)[C@H](Cc1ccccc1)NC)C(C)C)C(=O)N[C@@H](Cc1ccccc1)C(=O)N[C@H](C(=O)N[C@@H](Cc1ccc(O)cc1)C(=O)NCC(=O)N[C@@H](CCC(=O)O)C(=O)N[C@@H](CC(C)C)C(=O)N[C@@H](C)C(=O)N[C@H](CCCNC(=N)N)C(=O)N[C@@H](CC(C)C)C(=O)N[C@H](CCCCN)C(N)=O)[C@@H](C)O [[1-N-Methylphenylalanine, 3-alaninc, 11-alanine, 12-D-arginine, 13-Leucine, 14-D-lysine]motilin-(1-14)-peptide Amide (Porcine) Tris-trifluoroacetate Salt] (H-[NMeF]VAIFTYGELA[dR]L[dK]-NH2)",0.024
7.32,1.91,CC[C@H](C)[C@H](NC(=O)[C@H](C)NC(=O)[C@@H](NC(=O)[C@H](Cc1ccccc1)[N+](C)(C)C)C(C)C)C(=O)N[C@@H](Cc1ccccc1)C(=O)N[C@H](C(=O)N[C@@H](Cc1ccc(O)cc1)C(=O)NCC(=O)N[C@@H](CCC(=O)O)C(=O)N[C@@H](CC(C)C)C(=O)N[C@@H](CCC(N)=O)C(=O)N[C@H](CCCNC(=N)N)C(=O)N[C@@H](CC(C)C)C(=O)N[C@@H](CCCCN)C(N)=O)[C@@H](C)O (X1-VAIFTYGELQ[dR]LK-NH2),0.89
7.72,0.631,CC[C@H](C)[C@H](NC(=O)[C@H](C)NC(=O)[C@@H](NC(=O)[C@H](Cc1ccccc1)NC)C(C)C)C(=O)N[C@@H](Cc1ccccc1)C(=O)N[C@H](C(=O)N[C@@H](Cc1ccc(O)cc1)C(=O)NCC(=O)N[C@@H](CCC(=O)O)C(=O)N[C@@H](CC(C)C)C(=O)N[C@@H](CCC(N)=O)C(=O)N[C@H](CCCNC(=N)N)C(=O)N[C@@H](CC(C)C)C(=O)N[C@@H](CCCCN)C(N)=O)[C@@H](C)O (H-[NMeF]VAIFTYGELQ[dR]LK-NH2),0.06
,,CC[C@H](C)[C@H](NC(=O)[C@@H]1CCCN1C(=O)[C@@H](NC(=O)[C@H](Cc1ccccc1)NC)C(C)C)C(=O)N[C@@H](Cc1ccccc1)C(=O)N[C@H](C(=O)N[C@@H](Cc1ccc(O)cc1)C(=O)NCC(=O)N[C@@H](CCC(=O)O)C(=O)N[C@@H](CC(C)C)C(=O)N[C@@H](C)C(=O)N[C@H](CCCNC(=N)N)C(=O)N[C@@H](CC(C)C)C(=O)N[C@@H](CCC(N)=O)C(N)=O)[C@@H](C)O (H-[NMeF]VPIFTYGELA[dR]LQ-NH2),0.0018
7.55,1.15,CC[C@H](C)[C@H](NC(=O)[C@H](C)NC(=O)[C@@H](NC(=O)[C@H](Cc1ccccc1)[N+](C)(C)C)C(C)C)C(=O)N[C@@H](Cc1ccccc1)C(=O)N[C@H](C(=O)N[C@@H](Cc1ccc(O)cc1)C(=O)NCC(=O)N[C@@H](CCC(=O)O)C(=O)N[C@@H](CC(C)C)C(=O)N[C@@H](C)C(=O)N[C@H](CCCNC(=N)N)C(=O)N[C@@H](CC(C)C)C(=O)N[C@H](CCCCN)C(N)=O)[C@@H](C)O (X1-VAIFTYGELA[dR]L[dK]-NH2),0.007
7.73,1.17,CC[C@H](C)[C@H](NC(=O)[C@@H]1CCCN1C(=O)[C@@H](NC(=O)[C@H](Cc1ccccc1)N(C)C)C(C)C)C(=O)N[C@@H](Cc1ccccc1)C(=O)N[C@H](C(=O)N[C@@H](Cc1ccc(O)cc1)C(=O)NCC(=O)N[C@@H](CCC(=O)O)C(=O)N[C@@H](CC(C)C)C(=O)N[C@@H](CCC(N)=O)C(=O)N[C@H](CCCNC(=N)N)C(=O)N[C@@H](CC(C)C)C(=O)N[C@@H](CCCCN)C(N)=O)[C@@H](C)O (NMe2Phe-VPIFTYGELQ[dR]LK-NH2),0.002
7.64,1.23,CC[C@H](C)[C@H](NC(=O)[C@@H]1CCCN1C(=O)[C@@H](NC(=O)[C@H](Cc1ccccc1)N(C)C)C(C)C)C(=O)N[C@@H](Cc1ccccc1)C(=O)N[C@H](C(=O)N[C@@H](Cc1ccc(O)cc1)C(=O)NCC(=O)N[C@@H](CCC(=O)O)C(=O)N[C@@H](CC(C)C)C(=O)N[C@@H](C)C(=O)N[C@H](CCCNC(=N)N)C(=O)N[C@@H](CC(C)C)C(=O)N[C@@H](CCCCN)C(N)=O)[C@@H](C)O (NMe2Phe-VPIFTYGELA[dR]LK-NH2),0.003
7.74,0.708,CC[C@H](C)[C@H](NC(=O)[C@H](C)NC(=O)[C@@H](NC(=O)[C@H](Cc1ccccc1)N(C)C)C(C)C)C(=O)N[C@@H](Cc1ccccc1)C(=O)N[C@H](C(=O)N[C@@H](Cc1ccc(O)cc1)C(=O)NCC(=O)N[C@@H](CCC(=O)O)C(=O)N[C@@H](CC(C)C)C(=O)N[C@@H](C)C(=O)N[C@H](CCCNC(=N)N)C(=O)N[C@@H](CC(C)C)C(=O)N[C@@H](CCCCN)C(N)=O)[C@@H](C)O (NMe2Phe-VAIFTYGELA[dR]LK-NH2),0.003
7.59,1.91,CC[C@H](C)[C@H](NC(=O)[C@H](C)NC(=O)[C@@H](NC(=O)[C@H](Cc1ccccc1)[N+](C)(C)C)C(C)C)C(=O)N[C@@H](Cc1ccccc1)C(=O)N[C@H](C(=O)N[C@@H](Cc1ccc(O)cc1)C(=O)NCC(=O)N[C@@H](CCC(=O)O)C(=O)N[C@@H](CC(C)C)C(=O)N[C@@H](C)C(=O)N[C@H](CCCNC(=N)N)C(=O)N[C@@H](CC(C)C)C(=O)N[C@@H](CCCCN)C(N)=O)[C@@H](C)O (X1-VAIFTYGELA[dR]LK-NH2),0.001
